Experimental data: PMC7279038, “Antioxidant and Neuroprotective Effects Induced by Cannabidiol and Cannabigerol in Rat CTX-TNA2 Astrocytes and Isolated Cortexes” (International Journal of Molecular Sciences, 2020)

Assays:
[1] = ABTS scavenging ability test; conditions: mean ± S.D., n = 3
Procedure: For the 2,2′-azino-bis(3-ethylbenzothiazoline) 6-sulfonic acid (ABTS) radical scavenging assay, ABTS+ was produced directly by reacting 7 mM ABTS solution with 2.45 mM potassium persulfate and allowing the mixture to stand for […] in the dark at room temperature. Prior to beginning the assay, ABTS solution was diluted with methanol to an absorbance of 0.700 ± 0.02 at 734 nm. Sample solution was added to ABTS solution (2 mL) and mixed. The sample absorbance was read at 734 nm after a 30 min incubation at room temperature. The ABTS radical scavenging activity was expressed as IC50 values.

histone H2B = test: Untargeted proteomic analysis of cortexes, H2B; parameters: species or system rat; conditions: CBD 1000 nM, CBG 1 nM
Procedure: (§1) Sprague–Dawley rats (200–250 g) were sacrificed by CO2 inhalation (Italian Health Ministry authorization N. F4738.N.XTQ, delivered on 11th November 2018) and isolated prefrontal cortex specimens were immediately explanted and incubated in thermostatic shaking bath at 37 °C for 1 h (incubation period), in Krebs–Ringer buffer at the following K^+ concentrations:
(§2) Cortexes were stimulated with CBD (1000 nM) and CBD (1 nM). Afterwards, specimens were homogenized in perchloric acid solution (0.05 M) for the extraction and quantification of nitrites, via the aforementioned colorimetric Griess assay, and serotonin (5-HT), 5-hydroxyindoleacetic (5HIIA),3-hydroxykinurenine (3-HK) and kinurenic acid (KA) (ng/mg wet tissue) via high performance liquid chromatography analysis. Additionally, an untargeted proteomic analysis was carried out on the cortex homogenate. The analytical protocols for 5-HT, 5HIIA, 3-HK, KA and protein level determinations are described below. […]
(§3) After protein quantification, a volume corresponding to 50 μg of proteins was loaded onto a Nanosep 10-kDa-cutoff filter (Pall Corporation, Michigan, USA) and digested according to the protocol we routinely use in our laboratory, adapted from Distler et al. Briefly, the sample was washed twice with 200 μL urea buffer (8M urea, 100 mM Tris pH 8.5 in milliQ water) to remove the detergents present in the lysis buffer. […]

[2] = tested on: CTX-TNA2 astrocyte cell line; test: Apoptosis occurrence, Annexin-V/PI flow cytometry; format: cell-based, rat; conditions: challenged with H2O2; CBD 1000 nM, CBG 1 nM; 24 h, lasting up to 48 h
Procedure: The CTX-TNA2 rat astrocytes were purchased from the European Collection of Cell Cultures (ECACC), Sigma-Aldrich, Milan, Italy, and cultured as already indicated. Cells were grown in Dulbecco’s Modified Eagle Medium supplemented with 10% of FBS and penicillin–streptomycin (100 µgmL^−1) (all from EuroClone SpA Life-Sciences-Division, Milan, Italy) and maintained in a humified atmosphere of 5% CO2 at 37 °C. Cells were subcultivated at a ratio of 1.2 to 1.8 and the medium was changed every 3 days. CTX-TNA2 astrocytes were plated in 25 or 75 cm^2 flasks, according to experimental needing and cells between the eight and the 15 passage were used.
When indicated, the cells were treated with H2O2 300 µM for three hours and different concentrations of CBD (1–1000 nM) and CBG (1–1000 nM). The stock solutions were diluted in cell medium to the point that the concentration of DMSO in the samples was less than 0.0003%. Therefore, the addition of DMSO to the control samples was not necessary.
A FITC Annexin-V apoptosis detection kit (BD Pharmingen, San Diego, CA, USA) was used to assess apoptosis, according to the manufacturer’s instructions. […] After the addition of 200 µL of binding buffer, samples were analyzed with a Cytoflex flow cytometer with the FL1 and FL3 detector in a log mode, using the Cytoexpert analysis software (both from Beckmann Coulter). […]

synaptotagmin-1 (Syt 1) = test: Untargeted proteomic analysis of cortexes, Syt 1; parameters: species or system rat; conditions: CBD 1000 nM, CBG 1 nM
Procedure: as §1, §2, §3

Structure (SMILES)	IC50 [1]	effect on K+ 60 mM-induced reduction in H2B level (histone H2B)	early apoptosis (Annexin-Vpos/PIneg cells) [2]	effect on K+ 60 mM-induced reduction in Syt 1 level (synaptotagmin-1 (Syt 1))
C=C(C)[C@@H]1CCC(C)=C[C@H]1c1c(O)cc(CCCCC)cc1O [CBD, Cannabidiol]	1040 ± 10 µM	effective in counteracting the downregulation	reduce early apoptosis	blocking the downregulation
CCCCCc1cc(O)c(C/C=C(\C)CCC=C(C)C)c(O)c1 [CBG, cannabigerol]	1030 ± 10 µM	effective in counteracting the downregulation	reduce early apoptosis	completely ineffective
